Biological target: T1, RBL-1 Cell 5-Lipoxygenase (Rattus norvegicus, UniProt P12527)
T1 construct: the supernatant was saved as the source of enzymes; endogenous in cells; host or cells: RBL-1 (rat basophilic leukemia cells), 10,000×g supernatant of homogenate
T1 sequence (P12527 1-673): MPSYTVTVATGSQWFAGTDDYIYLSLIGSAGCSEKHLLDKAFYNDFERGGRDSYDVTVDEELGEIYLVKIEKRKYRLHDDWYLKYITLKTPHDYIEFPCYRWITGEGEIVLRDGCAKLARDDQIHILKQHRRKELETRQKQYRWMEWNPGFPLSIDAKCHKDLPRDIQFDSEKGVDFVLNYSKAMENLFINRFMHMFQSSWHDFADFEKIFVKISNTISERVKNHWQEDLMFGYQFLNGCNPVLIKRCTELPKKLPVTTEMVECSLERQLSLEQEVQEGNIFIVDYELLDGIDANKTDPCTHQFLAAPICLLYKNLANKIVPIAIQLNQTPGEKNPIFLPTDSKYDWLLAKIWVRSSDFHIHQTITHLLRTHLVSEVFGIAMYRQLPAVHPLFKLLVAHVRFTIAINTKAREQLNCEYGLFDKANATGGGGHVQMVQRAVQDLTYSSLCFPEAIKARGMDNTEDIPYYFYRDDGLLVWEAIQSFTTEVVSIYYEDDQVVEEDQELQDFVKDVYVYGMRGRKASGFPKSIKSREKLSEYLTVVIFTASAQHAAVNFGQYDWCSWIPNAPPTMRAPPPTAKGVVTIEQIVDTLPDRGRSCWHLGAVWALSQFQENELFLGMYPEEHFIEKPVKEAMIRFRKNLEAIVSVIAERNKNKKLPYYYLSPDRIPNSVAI
Assay: Procedure II: 5-lipoxygenase inhibition in disrupted RBL-1 cells (supernatant as enzyme source)
Assay type: biochemical
Conditions: not given
Method: RBL-1 Cell 5-Lipoxygenase and Cyclooxygenase
Rat basophilic leukemia cells (RBL-1; 5×10^7 viable cells/mL) were disrupted by homogenization on ice (four 20 sec bursts) with a Brinkman polytron. Complete cell breakage was verified microscopically. The homogenate was then centrifuged at 10,000×g for 48 minutes at 4° C. The pellet was discarded and the supernatant was saved as the source of enzymes. The supernatant was pre-incubated for five minutes at 37° C. in the presence of 2 mM of CaCl2 and compound or vehicle (1% DMSO). The conversion of AA into 5-LO products was initiated by adding 10 μL (50 μCi) of 1-^14 C-AA to each tube and incubated at 37° C. for 20 minutes. The reaction was stopped by adjusting the pH of each sample to 3 to 3.5 with 2M formic acid. Samples were extracted with three volumes of chloroform to isolate the products of 5-LO formed during the reaction. Fractions were dried under nitrogen, then resuspended in 40 μL of chloroform and spotted onto silica gel HL plates. The plates were developed in A-9 solvent. The dried plates were analyzed using a Bioscan Imaging TLC scanner to determine the percentage of radiolabelled AA converted to 5-HETE in each sample.
(§1) In the following tables, the superscripts indicate the number of experiments and, unless otherwise stated, the dose at which % inhibition is reported is 3 MPK.

Structure (SMILES)	% INHIBITION 5-LO (Procedure II)
COc1ccc(-n2nc(COC(=O)N(O)C(C)C)cc2-c2ccc(Cl)cc2)cc1 [1-C]	88%
COc1ccc(-n2nc(COC(=O)N(C)O)c(Br)c2-c2ccc(Cl)cc2)cc1 [1-E]	85%
COc1ccc(-n2nc(COC(=O)NO)c(Cl)c2-c2ccc(Cl)cc2)cc1 [1-G]	25%
COc1ccc(-n2nc(COC(=O)N(C)O)c(Cl)c2-c2ccc(Cl)cc2)cc1 [1-H]	83%
COc1ccc(-n2nc(COC(=O)N(O)C(C)C)c(Cl)c2-c2ccc(Cl)cc2)cc1 [1-I]	83%
COc1ccc(-n2nc(COC(=O)NO)cc2-c2ccc(C)cc2)cc1 [1-J]	33%
COc1ccc(-n2nc(COC(=O)N(C)O)cc2-c2ccc(C)cc2)cc1 [1-K]	58%
COc1ccc(-n2nc(COC(=O)N(C)O)c(Br)c2-c2ccc(C)cc2)cc1 [1-N]	74%
COc1ccc(-n2nc(COC(=O)N(C)O)c(Cl)c2-c2ccc(C)cc2)cc1 [1-Q]	88%
COc1ccc(-n2nc(COC(=O)N(O)C(C)C)c(Cl)c2-c2ccc(C)cc2)cc1 [1-R]	87%

The remaining lines, values ahead:

% INHIBITION 5-LO (Procedure II)	Structure (SMILES)
20%	COc1ccc(-n2nc(COC(=O)NO)cc2-c2ccc(Cl)cc2)cc1 [1-A]
85%	COc1ccc(-n2nc(COC(=O)N(C)O)cc2-c2ccc(Cl)cc2)cc1 [1-B]
28%	COc1ccc(-n2nc(COC(=O)NO)c(Br)c2-c2ccc(Cl)cc2)cc1 [1-D]
63%	COc1ccc(-n2nc(COC(=O)N(O)C(C)C)c(Br)c2-c2ccc(Cl)cc2)cc1 [1-F]
86%	COc1ccc(-n2nc(COC(=O)N(O)C(C)C)cc2-c2ccc(C)cc2)cc1 [1-L]
63%	COc1ccc(-n2nc(COC(=O)NO)c(Br)c2-c2ccc(C)cc2)cc1 [1-M]
81%	COc1ccc(-n2nc(COC(=O)N(O)C(C)C)c(Br)c2-c2ccc(C)cc2)cc1 [1-O]
30%	COc1ccc(-n2nc(COC(=O)NO)c(Cl)c2-c2ccc(C)cc2)cc1 [1-P]

Same assay, conditions: read-out: IC50 5-LO (Procedure II)

Structure (SMILES)	IC50
COc1ccc(-n2nc(COC(=O)N(O)C(C)C)cc2-c2ccc(Cl)cc2)cc1 [1-C]	1020 nM
COc1ccc(-n2nc(COC(=O)N(C)O)c(Br)c2-c2ccc(Cl)cc2)cc1 [1-E]	280 nM
COc1ccc(-n2nc(COC(=O)NO)c(Cl)c2-c2ccc(Cl)cc2)cc1 [1-G]	750 nM
COc1ccc(-n2nc(COC(=O)N(C)O)c(Cl)c2-c2ccc(Cl)cc2)cc1 [1-H]	< 100 nM
COc1ccc(-n2nc(COC(=O)N(O)C(C)C)c(Cl)c2-c2ccc(Cl)cc2)cc1 [1-I]	230 nM
COc1ccc(-n2nc(COC(=O)NO)cc2-c2ccc(C)cc2)cc1 [1-J]	1750 nM
COc1ccc(-n2nc(COC(=O)N(C)O)cc2-c2ccc(C)cc2)cc1 [1-K]	300 nM
COc1ccc(-n2nc(COC(=O)N(C)O)c(Br)c2-c2ccc(C)cc2)cc1 [1-N]	410 nM
COc1ccc(-n2nc(COC(=O)N(C)O)c(Cl)c2-c2ccc(C)cc2)cc1 [1-Q]	50 nM
COc1ccc(-n2nc(COC(=O)N(O)C(C)C)c(Cl)c2-c2ccc(C)cc2)cc1 [1-R]	100 nM

More lines, now with the values ahead:

IC50	Structure (SMILES)
1270 nM	COc1ccc(-n2nc(COC(=O)NO)cc2-c2ccc(Cl)cc2)cc1 [1-A]
480 nM	COc1ccc(-n2nc(COC(=O)N(C)O)cc2-c2ccc(Cl)cc2)cc1 [1-B]
840 nM	COc1ccc(-n2nc(COC(=O)NO)c(Br)c2-c2ccc(Cl)cc2)cc1 [1-D]
120 nM	COc1ccc(-n2nc(COC(=O)N(O)C(C)C)c(Br)c2-c2ccc(Cl)cc2)cc1 [1-F]
480 nM	COc1ccc(-n2nc(COC(=O)N(O)C(C)C)cc2-c2ccc(C)cc2)cc1 [1-L]
5300 nM	COc1ccc(-n2nc(COC(=O)NO)c(Br)c2-c2ccc(C)cc2)cc1 [1-M]
180 nM	COc1ccc(-n2nc(COC(=O)N(O)C(C)C)c(Br)c2-c2ccc(C)cc2)cc1 [1-O]
890 nM	COc1ccc(-n2nc(COC(=O)NO)c(Cl)c2-c2ccc(C)cc2)cc1 [1-P]

Biological target: T2, CO in intact RBL-1 cells (Rattus norvegicus, UniProt Q63921)
T2 construct: 5-LO and CO in intact RBL-1 cells; endogenous in cells; host or cells: RBL-1 (rat basophilic leukemia cells), intact
T2 sequence (Q63921 27-602): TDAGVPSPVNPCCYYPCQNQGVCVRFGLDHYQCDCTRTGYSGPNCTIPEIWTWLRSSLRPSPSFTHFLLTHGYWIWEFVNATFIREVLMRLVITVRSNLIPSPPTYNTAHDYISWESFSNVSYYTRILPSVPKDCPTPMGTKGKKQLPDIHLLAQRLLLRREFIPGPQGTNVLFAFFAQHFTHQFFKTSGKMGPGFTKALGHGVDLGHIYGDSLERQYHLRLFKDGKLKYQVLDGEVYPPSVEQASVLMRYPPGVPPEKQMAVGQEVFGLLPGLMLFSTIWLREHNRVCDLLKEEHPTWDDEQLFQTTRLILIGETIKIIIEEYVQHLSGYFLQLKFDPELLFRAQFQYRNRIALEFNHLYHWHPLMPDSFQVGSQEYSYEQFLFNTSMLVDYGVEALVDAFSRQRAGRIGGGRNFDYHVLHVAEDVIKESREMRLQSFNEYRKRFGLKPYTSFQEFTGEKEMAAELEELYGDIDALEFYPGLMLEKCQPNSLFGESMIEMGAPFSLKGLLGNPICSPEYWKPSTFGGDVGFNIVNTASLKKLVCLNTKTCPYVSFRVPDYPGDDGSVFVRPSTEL
Assay: Procedure III: inhibition of CO in intact RBL-1 cells
Assay type: cell-based
Conditions: not given
Method: The ability to inhibit 5-LO and CO in intact RBL-1 cells was also evaluated. RBL-1 cells were maintained in culture in minimal essential medium (Bio*Whittaker, Walkersville, Md.), containing 12.5% fetal calf serum, 10 mg/mL streptomycin, 10 I.U./mL penicillin G, […] gentamycin and 2 mM L-glutamine (Bio*Whittaker, Walkersville, Md.). Cells were collected by centrifugation, washed once in HBSS, and resuspended at a concentration of 1×10^5 cells/mL. Cells were incubated in the presence of vehicle or drug then centrifuged at 800×g for 10 minutes at 4° C. The supernatant was removed by aspiration and the cells were resuspended in 0.5 mL of HBSS. The reaction was started by the addition of 20 μg/mL of calcium ionophore A-23187 (mixed calcium and magnesium salts, Calbiochem, La Jolla, Calif.) and allowed to proceed for 15 minutes, then stopped by plunging the tubes into a slush ice bath. The conversion of AA to 5-LO products was initiated by the addition of 10 μL (50 uCi) of 1-^14 C-AA. Products were isolated by acidification and extraction, followed by thin layer chromatography analysis as described above. Radioactive areas corresponding to authentic 5-LO and CO products were quantitated by the Bioscan 2000 Imaging System.
as §1

Structure (SMILES)	IC50
COc1ccc(-n2nc(COC(=O)N(O)C(C)C)cc2-c2ccc(Cl)cc2)cc1 [1-C]	540 nM
COc1ccc(-n2nc(COC(=O)N(C)O)c(Br)c2-c2ccc(Cl)cc2)cc1 [1-E]	220 nM
COc1ccc(-n2nc(COC(=O)NO)c(Cl)c2-c2ccc(Cl)cc2)cc1 [1-G]	2200 nM
COc1ccc(-n2nc(COC(=O)N(C)O)c(Cl)c2-c2ccc(Cl)cc2)cc1 [1-H]	390 nM
COc1ccc(-n2nc(COC(=O)N(O)C(C)C)c(Cl)c2-c2ccc(Cl)cc2)cc1 [1-I]	1970 nM
COc1ccc(-n2nc(COC(=O)NO)cc2-c2ccc(C)cc2)cc1 [1-J]	170 nM
COc1ccc(-n2nc(COC(=O)N(C)O)cc2-c2ccc(C)cc2)cc1 [1-K]	30 nM
COc1ccc(-n2nc(COC(=O)N(C)O)c(Br)c2-c2ccc(C)cc2)cc1 [1-N]	80 nM
COc1ccc(-n2nc(COC(=O)N(C)O)c(Cl)c2-c2ccc(C)cc2)cc1 [1-Q]	150 nM
COc1ccc(-n2nc(COC(=O)N(O)C(C)C)c(Cl)c2-c2ccc(C)cc2)cc1 [1-R]	4100 nM

Other lines, results leading:

IC50	Structure (SMILES)
1400 nM	COc1ccc(-n2nc(COC(=O)NO)cc2-c2ccc(Cl)cc2)cc1 [1-A]
380 nM	COc1ccc(-n2nc(COC(=O)N(C)O)cc2-c2ccc(Cl)cc2)cc1 [1-B]
2400 nM	COc1ccc(-n2nc(COC(=O)NO)c(Br)c2-c2ccc(Cl)cc2)cc1 [1-D]
1900 nM	COc1ccc(-n2nc(COC(=O)N(O)C(C)C)c(Br)c2-c2ccc(Cl)cc2)cc1 [1-F]
20 nM	COc1ccc(-n2nc(COC(=O)N(O)C(C)C)cc2-c2ccc(C)cc2)cc1 [1-L]
860 nM	COc1ccc(-n2nc(COC(=O)NO)c(Br)c2-c2ccc(C)cc2)cc1 [1-M]
860 nM	COc1ccc(-n2nc(COC(=O)N(O)C(C)C)c(Br)c2-c2ccc(C)cc2)cc1 [1-O]
2500 nM	COc1ccc(-n2nc(COC(=O)NO)c(Cl)c2-c2ccc(C)cc2)cc1 [1-P]

From patent US5387602A, “1.5-diphenyl-3-(N-hydroxycarbamoyloxyalkyl)pyrazoles” (Ortho Pharmaceutical Corporation, priority 1993, dated 1995)
